Results on 13 compounds are retold here after US6057371A, “Sigma receptor ligands and the use thereof” (Virginia Commonwealth University, priority 1992, dated 2000).

One assay concerns the target PCP receptor. Kind of assay: PCP receptor binding, ^3 H-MK-801. On the set-up: species or system rat. To be noted: Table 4. The method in brief:
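Rat brain membranes (about 100 ug protein) incubated with 1 nM (+) ^3 H-MK-801 for 4 hr at room temperature in 5 mM Tris/acetate. Bound radioligand separated by rapid filtration through glass fiber filters presoaked in 0.05% polyethylenamine.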

A further assay has as its target T1, Dopamine D1 receptor (Rattus norvegicus, UniProt P18901).
T1 construct: Rat striatal membranes were prepared from frozen tissue; from tissue; host or cells: rat striatum, frozen tissue
The assay is described as follows: Dopamine D1 receptor binding, [^3 H]SCH-23390, striatal membranes. The following applies: Table 4. How it is done: (§1) Dopamine D1 and D2 receptor binding assays were performed as described by Billard et al., Life Sci. 35: 1885-1893 (1984) using [^3 H]SCH-23390 for the D1 receptors and [^3 H]domperidone for the D2 receptors (Baudry et al., Arch. Pharmacol. 308: 231-237 (1979).
(§2) Rat striatal membranes were prepared from frozen tissue by Poltron homogenization in 25 volumes of ice cold Tris-EDTA buffer (50 mM Tris-HCl, 1 mM EDTA, pH 7.4 at 4° C.). The homogenate was centrifuged at 48,000× g for 10 min. at 4° C., and the pellet was resuspended in 25 volumes of the same buffer. This suspension was then incubated at 37° C. for 15 min., followed by recentrifugation as before. The resulting pellet was resuspended in 267 volumes of assay buffer (50 mM Tris-HCl, 120 mM NaCl, 5 mM KCl, 2 mM CaCl2, 1 mM MgCl2, pH 7.4 at 37° C.).
(§3) The binding assays were conducted with 100 uL of [^3 H]SCH-23390 or [^3 H]domperidone (to give about 1 nM final), 100 uL of buffer or drug solution, and 800 uL of membrane suspension (to give about 250 ug of striatal membrane protein per assay). The tubes were incubated at 37° C. for 60 min. The assays were stopped by rapid filtration over Schleicher & Schuell #32 or Whatman GF/B glass fiber filters (presoaked in 0.5% polyethyleneimine for [^3 H]domperidone binding), followed by two 3 mL washes of ice cold buffer using a Brandel cell harvester. After vigorous shaking, the filter disks were counted at 52% efficiency in 5 mL of Cytoscint (ICN).

Another assay has as its target T2, Dopamine D2 receptor (Rattus norvegicus, UniProt P61169).
T2 construct: Rat striatal membranes were prepared from frozen tissue; from tissue; host or cells: rat striatum, frozen tissue
Kind of assay: Dopamine D2 receptor binding, [^3 H]domperidone, striatal membranes. To be noted: Table 4. Here is the method:
as §1, §2, §3

For assay [1] the following is noted: cited, Glennon 1984; cited from earlier work.
The target in a further assay is T3, 5-HT1A receptor (Rattus norvegicus, UniProt P19327).
T3 sequence (P19327 1-422): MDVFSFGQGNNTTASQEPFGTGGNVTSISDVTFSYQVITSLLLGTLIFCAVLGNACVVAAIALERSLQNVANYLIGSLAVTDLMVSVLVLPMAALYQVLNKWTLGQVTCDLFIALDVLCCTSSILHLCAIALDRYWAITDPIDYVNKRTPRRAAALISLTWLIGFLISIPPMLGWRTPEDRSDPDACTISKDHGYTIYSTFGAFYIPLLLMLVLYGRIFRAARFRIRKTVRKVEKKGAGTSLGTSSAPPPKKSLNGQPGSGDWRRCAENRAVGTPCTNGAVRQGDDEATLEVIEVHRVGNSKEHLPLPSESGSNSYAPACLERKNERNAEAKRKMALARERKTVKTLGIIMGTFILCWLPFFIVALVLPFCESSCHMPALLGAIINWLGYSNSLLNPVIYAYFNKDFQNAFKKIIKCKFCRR
The assay is described as follows: biochemical. In kind it is binding. To be noted: for IC50: read-out: 5-HT1A IC50. On the set-up: 47: 529-540 (1986); from tissue; host or cells: brain tissue, inferred from the cited method (rat frontal cortex). How it is done: Further sigma receptor binding assays against [^3 H]DTG and 5HT-1A binding assays were conducted according to the procedure outlined in the previous examples.

A further assay concerns the target T4, sigma-1 binding site (Cavia porcellus, UniProt Q60492).
T4 construct: Guinea pig whole membrane preparations (P2 microsomal fraction); from tissue; host or cells: guinea pig membranes (P2 microsomal fraction), as described by Weber et al; brain inferred from the sister test b489
Kind of assay: biochemical. The following applies: for Ki: read-out: SIGMA-1 KI vs. 3H-PENTAZOCINE MEAN. On the set-up: species or system guinea pig. How it is done:
[^3 H]DTG was purchased from DuPont/NEN.
The radioactivity on the filters was determined by scintillation spectrometry at an efficiency of about 50% using Cytoscint (ICN) scintillation fluid.

Assay [2] addresses T5, sigma-2 binding site (Cavia porcellus, UniProt H0V073).
T5 construct: Guinea pig whole membrane preparations (P2 microsomal fraction); from tissue; host or cells: guinea pig membranes (P2 microsomal fraction), as described by Weber et al; brain inferred from the sister test b489
T5 sequence (H0V073 1-176): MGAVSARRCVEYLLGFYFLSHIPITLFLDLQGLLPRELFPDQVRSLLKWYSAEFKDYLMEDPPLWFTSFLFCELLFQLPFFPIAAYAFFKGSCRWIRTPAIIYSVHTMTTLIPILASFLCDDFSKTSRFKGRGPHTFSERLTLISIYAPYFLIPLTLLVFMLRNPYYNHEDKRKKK
Kind of assay: biochemical. On the set-up: species or system guinea pig. To be noted: for IC50: Table 17, read-out: IC50 (nM) at sigma-2.
Description: (§4) For the standard equilibrium assay, the mixtures were incubated for 30 min. at room temperature, then filtered and the radioactivity determined as described above.

A further assay has as its target sigma receptor. The assay is described as follows: Sigma receptor binding, [^3 H]DTG, brain membranes (both sigma-1 and sigma-2 sites). To be noted: for IC50: Table 6, [^3 H]DTG. On the set-up: species or system guinea pig.
Assay [3] deals with sigma-2 binding site. The assay is described as follows: biochemical. On the set-up: species or system guinea pig. The following applies: for sigma-1/sigma-2 ratio: Example 9; for ratio of sigma-1/sigma-2 (sigma-2 selective compounds): greater than about 10, see Table 10.
Description: as §4
A further assay has as its system sigma sites. The following applies: cited, cited from earlier work; for affinity for sigma-1 site compared to sigma-2 site: Hellewell and Bowen.
[4] abbreviates: Table 10, read-out: SIGMA-2 KI vs. 3H-DTG + PENTAZOCINE MEAN.

The structures appear in SMILES notation. Several values for one entry are separate records, joined by “and”; a condition that tells them apart may be missing. Equal entries are not always repeated. Where two headings read alike, the source gives them in different places.

T4 sequence (Q60492 whole entry): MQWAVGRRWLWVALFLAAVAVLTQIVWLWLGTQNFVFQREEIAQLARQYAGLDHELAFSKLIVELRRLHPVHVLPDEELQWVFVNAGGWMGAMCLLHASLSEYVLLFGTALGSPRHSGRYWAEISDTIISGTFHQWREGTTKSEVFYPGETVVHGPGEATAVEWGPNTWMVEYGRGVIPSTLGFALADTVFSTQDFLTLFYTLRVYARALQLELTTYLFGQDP
T2 sequence (P61169 whole entry): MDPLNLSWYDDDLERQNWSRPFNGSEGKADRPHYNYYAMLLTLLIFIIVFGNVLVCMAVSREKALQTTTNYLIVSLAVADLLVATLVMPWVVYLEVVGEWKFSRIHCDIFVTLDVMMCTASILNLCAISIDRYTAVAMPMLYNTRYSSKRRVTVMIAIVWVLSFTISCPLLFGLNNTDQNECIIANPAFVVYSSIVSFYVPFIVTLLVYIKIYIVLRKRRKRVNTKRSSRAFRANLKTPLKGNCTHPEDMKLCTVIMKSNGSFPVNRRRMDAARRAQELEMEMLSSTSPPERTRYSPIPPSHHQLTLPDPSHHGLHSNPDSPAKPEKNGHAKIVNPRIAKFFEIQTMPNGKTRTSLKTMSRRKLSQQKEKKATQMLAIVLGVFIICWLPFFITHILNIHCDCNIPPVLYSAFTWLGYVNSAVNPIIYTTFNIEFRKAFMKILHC
T1 sequence (P18901 whole entry): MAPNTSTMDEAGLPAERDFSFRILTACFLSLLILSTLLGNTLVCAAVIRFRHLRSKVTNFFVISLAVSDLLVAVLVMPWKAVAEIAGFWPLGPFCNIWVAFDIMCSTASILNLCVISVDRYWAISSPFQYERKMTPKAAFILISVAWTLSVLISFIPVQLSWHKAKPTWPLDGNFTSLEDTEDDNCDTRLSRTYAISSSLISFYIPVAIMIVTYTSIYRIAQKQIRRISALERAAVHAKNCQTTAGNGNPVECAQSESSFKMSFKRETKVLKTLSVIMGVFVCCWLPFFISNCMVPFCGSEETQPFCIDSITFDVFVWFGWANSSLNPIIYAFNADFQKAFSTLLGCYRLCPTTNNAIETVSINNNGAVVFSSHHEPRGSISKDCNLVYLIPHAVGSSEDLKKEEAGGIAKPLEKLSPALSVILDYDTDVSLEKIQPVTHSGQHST

Regarding `c1ccc(N2CCN(CCCc3ccc4ccccc4c3)CC2)cc1` [Compound 51], the IC50 (as a rule, the midpoint of a concentration-inhibition curve) is over 10 µM at PCP receptor, 2.99 ± 0.04 µM on Dopamine D1 receptor and 0.158 ± 0.028 µM at Dopamine D2 receptor.
As for `NC1CCc2ccccc2C1` (centres unmarked) [2-aminotetralin], in assay [1], the “effectiveness vs. racemic amphetamine” value is “about one-half as effective as racemic amphetamine”.
Regarding `OC1(c2ccccc2)CCN(CCCc2ccccc2)CC1` [Compound 40, 4-Hydroxy-4-phenyl-1-(3-phenylpropyl)piperidine], the IC50 on PCP receptor was over 10 µM; at Dopamine D1 receptor it was over 10 µM; at 5-HT1A receptor (Table 5) it was 2.96 µM. In addition, the “Ratio 5-HT1A /σ” value at 5-HT1A receptor amounted to 970. In addition, the “IC50 ratio of sigma-1/sigma-2 (sigma-1 selective compounds)” value on sigma-1 binding site is listed as “less than 0.1”. Moreover, the Ki on sigma-1 binding site (Table 10) is 0.00068 µM; at sigma-2 binding site [2] (setting [4]), 0.0092 µM and 0.00703 µM. Also, the “S1/S2 Ratio” value at sigma-1 binding site (guinea pig, microsomes) was 0.074 and 0.096.
Regarding `COc1ccccc1N1CCN(CCCCN2C(=O)c3ccccc3C2=O)CC1` [Compound 120, N-(4-(1-phthalimido)butyl)-N'-(o-methoxyphenyl)piperazine], the figures for the Ki at sigma-1 binding site (Table 10) and at sigma-2 binding site [2] (setting [4]) were 0.512 µM and 0.0766 µM, respectively. At sigma-1 binding site (Table 10, sigma-1/sigma-2), the “S1/S2 Ratio” value is reported as 6.683. Besides, the half-inhibitory concentration (IC50) on sigma receptor came to 64.7 nM. The sigma-1/sigma-2 ratio in the assay on sigma-2 binding site [3] is given as 7.
Turning to `c1ccc(CCCNCCCc2ccccc2)cc1` [Compound 15, Di-(3-phenylpropyl)-amine], the IC50 at PCP receptor is over 10 µM; on Dopamine D1 receptor, over 10 µM; at 5-HT1A receptor (Table 5), 0.0307 µM; on Dopamine D2 receptor it was 1.68 ± 3.6 µM. Also, the “Ratio 5-HT1A /σ” value at 5-HT1A receptor (Table 5) came out at 2. Also, the Ki at sigma-1 binding site (Table 10) amounted to 0.0114 µM; on sigma receptor (Table 7, Phenyl-(CH2)x -NH--(CH2)y -Phenyl, read-out: Ki) it was 0.014 µM; at sigma-2 binding site [2] (setting [4]), 0.0639 µM. Moreover, the “S1/S2 Ratio” value at sigma-1 binding site (Table 10, sigma-1/sigma-2) is on record as “.178”.
Regarding `O=C(CCCN1CCC(O)(c2ccc(Cl)cc2)CC1)c1ccc(F)cc1` [Haloperidol], the “affinity for sigma sites vs. N-allyl normetrazocine (NANM)” value with sigma sites (Tam 1984) is “approximately 100 fold”.
With `CC(C)=CCN1CCC2(C)c3cc(O)ccc3CC1C2C` (single isomer, unassigned; (+)) [(+)Pentazocine], the “affinity for sigma-1 site compared to sigma-2 site” value with sigma sites is “nearly two orders of magnitude higher affinity for the sigma-1 site compared to the sigma-2 site”.
With `C=CCN1CC[C@]2(C)c3cc(O)ccc3C[C@H]1[C@H]2C` [(+)SKF 10047, reference compound], the “affinity for sigma-1 site compared to sigma-2 site” value in the assay on sigma sites is reported as “nearly two orders of magnitude higher affinity for the sigma-1 site compared to the sigma-2 site”. Further, the Ki at sigma-2 binding site [2] (SIGMA-2 KI vs. 3H-DTG + PENTAZOCINE MEAN) was determined as 16.2 µM.
Turning to `CC(Cc1ccc(I)cc1)NCCCc1ccccc1` (racemic) [Compound 22, (±) N-[1-(4'-Iodophenyl)-2-propyl]-3-phenylpropylamine], the IC50 at PCP receptor was over 10 µM; on Dopamine D1 receptor, over 10 µM; at 5-HT1A receptor (Table 5), 0.202 µM; at sigma-1 binding site (Table 12, read-out: IC50 (nM) at sigma-1), 17.7 nM; at sigma-2 binding site [2], 76 nM. Further, at 5-HT1A receptor, the “Ratio 5-HT1A /σ” value is recorded as 13. Moreover, the figures for the Ki on sigma-1 binding site (Table 10) and on sigma-2 binding site [2] (setting [4]) were 0.0177 µM and 0.076 µM, respectively. The “S1/S2 Ratio” value on sigma-1 binding site (guinea pig, microsomes) came to 0.232.
`c1ccc(CCNCCCc2ccc3ccccc3c2)cc1` [Compound 41]: the IC50 is over 10 µM on PCP receptor, over 10 µM at Dopamine D1 receptor, 0.0347 µM at 5-HT1A receptor (Table 5) and 1.92 ± 0.19 µM on Dopamine D2 receptor. For the same compound, the “Ratio 5-HT1A /σ” value on 5-HT1A receptor (Table 5) worked out at 7.6.
On to `O=C1c2ccccc2C(=O)N1CCCCN1CCN(c2ccccc2)CC1` [Compound 97], for which the Ki at sigma-1 binding site (Table 10) turned out to be 0.195 µM; at sigma-2 binding site [2] (setting [4]), 0.0204 µM. Besides, the “S1/S2 Ratio” value on sigma-1 binding site (Table 10, sigma-1/sigma-2) is 9.587. At sigma receptor, the IC50 stood at 20.3 nM. Moreover, the sigma-1/sigma-2 ratio in the assay on sigma-2 binding site [3] was determined as 10. Further, the “ratio of sigma-1/sigma-2 (sigma-2 selective compounds)” value in the assay with sigma-2 binding site [3] is on record as “greater than 10”.
`C[C@H](Cc1ccccc1)NCCCc1ccccc1` [Compound 1, R(-)N-(1-phenyl-2-propyl)-3-phenylpropylamine]: the IC50 at PCP receptor was over 10 µM; on Dopamine D1 receptor it was over 10 µM; on 5-HT1A receptor (Table 5), 0.115 µM; on Dopamine D2 receptor it was 4.65 ± 0.43 µM; on sigma-2 binding site [2], 60 nM. Besides, the Ki at sigma-2 binding site [2] (Example 9, read-out: sigma-2 binding affinity) was determined as 0.06 µM; at sigma-2 binding site [2] (setting [4]) it was 0.0608 µM.
For the compound `O=C1c2ccccc2C(=O)N1CCCN1CCN(c2ccccc2)CC1` [Compound 96, N-phenyl-N'-(3-(1-phthalimido)propyl)piperazine], the Ki at sigma-1 binding site (Table 10) worked out at 3.1 µM; at sigma-2 binding site [2] (setting [4]), 0.149 µM. At sigma receptor, this compound registered an IC50 of 141 nM. Moreover, in the assay on sigma-2 binding site [3], the sigma-1/sigma-2 ratio was determined as 87. In the assay on sigma-2 binding site [3], the “ratio of sigma-1/sigma-2 (sigma-2 selective compounds)” value was “greater than 10”.
